Laboratory results as given in patent publication US20060046972A1, “Cytotoxic nucleoside analog compound 003 for treating cancer” (Parker Hughes Institute, priority 2004, published 2006).

System: Lewis rats
Experiment: Cumulative toxicity of intraperitoneal doses in Lewis rats
Assay type: in vivo
Parameters: RBC: unit not given here
Settings: for ALC / ALT / ANC / AST / Albumin / Ammonia / Amylase / BUN / CPK / Calcium / Creatinine / Mean Weight Change (g ± SEM) / Mean Weight Change [%] / Morbidity / Phosphate / RBC / Total Bilirubin / Total Protein / Toxic Organ Lesions / Triglycerides / WBC / Weight Gain / Weight Loss: day 30
Experimental: 1.2.8 Animals Female CD-1 mice (Body weight: ˜25 g; Age: 7 week old) were purchased, from Charles River Laboratories (Willmington, Mass., USA). MMTV Neu-mice [FVB/N-TgN(MMTV neu)202MUL; Jackson Laboratory, Bar Harbor, Me.] were bred to produce multiple litters. All mice were housed in microisolator cages (Lab Products, Inc., Maywood, N.Y., USA) containing autoclaved bedding in a controlled specific pathogen-free (SPF) environment (12-h light/12-h dark photoperiod, 22±1° C., 60±10% relative humidity), which is fully accredited by the USDA (United States Department of Agriculture). Adult male Lewis rats (Body weight: ˜160 g) were obtained from the specific pathogen-free (SPF) breeding facilities of Harlan Sprague Dawley (Indianapolis, Id., USA) at 14 weeks of age. All husbandry and experimental contact made with the mice and rats maintained SPF conditions. The rats were kept in microisolater cages (Allentown Caging Equipment Co., Inc., Allentown, N.J., USA) containing autoclaved food, water, and bedding. Animal studies were approved by Parker Hughes Institute Animal Care and Use Committee and all animal care procedures 1.5 conformed to the Guide for the Care and Use of Laboratory Animals (National Research Council, National Academy Press, Washington D.C. 1996, USA).
The toxicity profile of Compound 003 in CD-1 mice and Lewis rats was examined, using standard procedures as previously reported for other experimental drugs (Uckun, et al., 2003, Arzneimittelforschun. 53:357; Uckun, et al., 2002, Clin Cancer Res. 8: 1224; Uckun, et al., 2002, Antimicrob Agents Chemother. 46:3428). In brief, mice and rats were treated with intraperitoneal injections of vehicle or Compound 003 at multiple dose levels. Compound 003 was administered as a 0.2 mL (for mice) or 0.5 mL (for rats) bolus injection containing 10% DMSO as a vehicle. Animals were allowed free access to autoclaved standard pellet food and tap water throughout the experiments and monitored daily for morbidity and mortality. Animals were electively sacrificed on day 7 or day 30 to determine the toxicity of Compound 003 by examining their blood chemistry profiles, blood counts, and evaluating multiple organs for the presence of toxic lesions. Blood was collected by intracardiac puncture following anesthesia with ketamine:xylazine and immediately heparinized. The blood chemistry profiles were examined using a Synchron CX5CE Chemical Analyzer (Beckman Instruments, Inc., Fullerton, Calif., USA). Blood counts (red blood cells [RBC], white blood cells [WBC] and platelets [Plt]) were determined using a HESKA Vet ABC-Diff Hematology Analyzer (HESKA Corporation, Fort Collins, Colo., USA). Absolute neutrophil counts (ANC) and absolute lymphocyte counts (ALC) were calculated from WBC values after determining the percentages of neutrophils and lymphocytes by a manual differential count. At the time of necropsy, […] from mice (bone, bone marrow, brain, cecum, heart, kidney, large intestine, liver, lung, lymph node, ovary, pancreas, skeletal muscle, skin, small intestine, spleen, stomach, thymus, thyroid gland, urinary bladder, and uterus, as available) and 21 different tissues from rats (bone, bone marrow, brain, coagulating gland, epididymis, heart, large intestine, small intestine, kidney, liver, lung, pancreas, peripheral nerve/spinal nerve, skeletal muscle, skin, spinal cord, spleen, stomach, testes, thymus, urinary bladder) were collected within 15 minutes after sacrifice, gross pathological findings were documented, organs were preserved in 10% neutral phosphate buffered formalin, and processed for histopathological examination. For histopathologic studies, formalin fixed tissues were dehydrated and embedded in paraffin by routine methods. Glass slides with affixed 4-5 micron tissue sections were prepared and stained with Hemotoxylin and Eosin (H&E). […]

[1] = 20 mg/kg i.p. for 30 consecutive days
[2] = 40 mg/kg i.p. for 30 consecutive days
[3] = 80 mg/kg i.p. for 30 consecutive days

COC(=O)C(C)NP(=O)(OCC1OC(n2cc(C)c(=O)[nH]c2=O)CC1N=[N+]=[N-])Oc1ccc(OC)cc1 (stereo not shown) [Compound 003, 3′-azidothymidine 5′-[p-methoxyphenylmethoxyalaninyl phosphate]]
ALC [1]: 9.6 ± 0.0 ×10^9L | ALT [1]: 68.0 ± 5.5 IU/L | ANC [1]: 2.4 ± 0.0 ×10^9L | AST [1]: 7.6 ± 1.6 IU/L | Albumin [1]: 1.5 ± 0.0 g/dL | Ammonia [1]: 77.2 ± 4.1 µmol/L | Amylase [1]: 1667.1 ± 29.8 U/L | BUN [1]: 21.8 ± 0.4 mg/dL | CPK [1]: 546.1 ± 109.9 IU/L | Calcium [1]: 10.9 ± 0.1 mg/dL | Creatinine [1]: 0.6 ± 0.0 mg/dL | Mean Weight Change (g ± SEM) [1]: 9.02 ± 1.39 g | Mean Weight Change [%] [1]: (2.68 ± 0.41%) | Morbidity [1]: 0/10 | Phosphate [1]: 6.2 ± 0.2 mg/dL | RBC [1]: 10.0 ± 0.1 ×10^9 | Total Bilirubin [1]: 0.6 ± 0.1 mg/dL | Total Protein [1]: 6.3 ± 0.1 g/dL | Toxic Organ Lesions [1]: 0/10 | Triglycerides [1]: 87.4 ± 9.9 mg/dL | WBC [1]: 11.9 ± 0.4 ×10^9/L | Weight Gain [1]: 10/10 | Weight Loss [1]: 0/10 | ALC [2]: 10.7 ± 0.0 ×10^9L | ALT [2]: 64.2 ± 1.4 IU/L | ANC [2]: 1.9 ± 0.0 ×10^9L | AST [2]: 6.8 ± 1.0 IU/L | Albumin [2]: 1.6 ± 0.0 g/dL | Ammonia [2]: 91.4 ± 8.2 µmol/L | Amylase [2]: 1586.3 ± 31.4 U/L | BUN [2]: 21.8 ± 0.3 mg/dL | CPK [2]: 409.4 ± 55.3 IU/L | Calcium [2]: 10.4 ± 0.1 mg/dL | Creatinine [2]: 0.5 ± 0.0 mg/dL | Mean Weight Change (g ± SEM) [2]: 9.66 ± 1.36 g | Mean Weight Change [%] [2]: (2.85 ± 0.38%) | Morbidity [2]: 0/10 | Phosphate [2]: 5.6 ± 0.1 mg/dL | RBC [2]: 10.1 ± 0.1 ×10^9 | Total Bilirubin [2]: 0.6 ± 0.1 mg/dL | Total Protein [2]: 6.1 ± 0.1 g/dL | Toxic Organ Lesions [2]: 0/10 | Triglycerides [2]: 103.0 ± 10.7 mg/dL | WBC [2]: 12.9 ± 0.4 ×10^9/L | Weight Gain [2]: 10/10 | Weight Loss [2]: 0/10 | ALC [3]: 10.0 ± 0.0 ×10^9L | ALT [3]: 62.5 ± 1.8 IU/L | ANC [3]: 2.1 ± 0.0 ×10^9L | AST [3]: 9.4 ± 0.7 IU/L | Albumin [3]: 1.6 ± 0.0 g/dL | Ammonia [3]: 92.8 ± 6.0 µmol/L | Amylase [3]: 1658.3 ± 51.8 U/L | BUN [3]: 22.7 ± 0.7 mg/dL | CPK [3]: 371.0 ± 44.3 IU/L | Calcium [3]: 10.5 ± 0.2 mg/dL | Creatinine [3]: 0.6 ± 0.0 mg/dL | Mean Weight Change (g ± SEM) [3]: 7.37 ± 1.70 g | Mean Weight Change [%] [3]: (2.24 ± 0.51%) | Morbidity [3]: 0/10 | Phosphate [3]: 5.9 ± 0.1 mg/dL | RBC [3]: 9.8 ± 0.1 ×10^9 | Total Bilirubin [3]: 0.7 ± 0.1 mg/dL | Total Protein [3]: 6.3 ± 0.1 g/dL | Toxic Organ Lesions [3]: 0/10 | Triglycerides [3]: 83.4 ± 11.2 mg/dL | WBC [3]: 12.2 ± 0.3 ×10^9/L | Weight Gain [3]: 9/10 | Weight Loss [3]: 1/10 | postmortem gross pathology (20-80 mg/kg/day for 30 days): did not reveal any gross pathological findings | Slight tubular degeneration, share of animals (80 and 40 mg/kg): 50% | systemic toxicity by blood tests (day 30, 20-80 mg/kg/day): did not suggest any significant systemic toxicity | tolerability (i.p. daily for up to 30 days, daily dose as high as 80 mg/kg, cumulative as high as 2.4 g/kg): well tolerated
